What all share (assay type): in vivo
In experiment [1] the test system is Alopecurus myosuroides (ALOMY). The experiment can be described thus: Pre-emergence herbicidal activity, glasshouse pot test. The note with it: Alopecurus myosuroides, 312 h, Rate 250 g/ha, evaluated after 13 days, read-out: Pre-emergence activity ALOMY (100=total damage to plant; 0=no damage to plant). The method, then: (§1) Seeds of a variety of test species were sown in standard soil in pots. After cultivation for one day (pre-emergence) or after 8 days cultivation (post-emergence) under controlled conditions in a glasshouse (at 24/16° C., day/night; 14 hours light; 65% humidity), the plants were sprayed with an aqueous spray solution derived from the formulation of the technical active ingredient in acetone/water (50:50) solution containing 0.5% Tween 20 (polyoxyethelyene sorbitan monolaurate, CAS RN 9005-64-5). The test plants were then grown in a glasshouse under controlled conditions in a glasshouse (at 24/16° C., day/night; 14 hours light; 65% humidity) and watered twice daily. After 13 days for pre and post-emergence, the test was evaluated (100=total damage to plant; 0=no damage to plant).
(§2) Lolium perenne (LOLPE), Alopecurus myosuroides (ALOMY), Echinochloa crus-galli (ECHCG), and Avena fatua (AVEFA).

Experiment [2] concerns Echinochloa crus-galli (ECHCG). The experiment is described as above. The note with it: Echinochloa crus-galli, 312 h, Rate 250 g/ha, evaluated after 13 days, read-out: Pre-emergence activity ECHCG (100=total damage to plant; 0=no damage to plant). The method, then: as §1, §2
In experiment [3] the test system is Avena fatua (AVEFA). The description is as above. The conditions noted are these: Avena fatua, 312 h, Rate 250 g/ha, evaluated after 13 days, read-out: Pre-emergence activity AVEFA (100=total damage to plant; 0=no damage to plant). The method, then: as §1, §2
In experiment [4] the test system is Lolium perenne (LOLPE). The description is as above. The note with it: Lolium perenne, 312 h, Rate 250 g/ha, evaluated after 13 days, read-out: Pre-emergence activity LOLPE (100=total damage to plant; 0=no damage to plant). The method, then: as §1, §2
The test system of experiment [5] is Alopecurus myosuroides (ALOMY). Put plainly: Post-emergence herbicidal activity, glasshouse pot test. The conditions noted are these: Alopecurus myosuroides, 312 h, rate 250 g/ha, evaluated after 13 days, read-out: Post-emergence activity ALOMY (100=total damage to plant; 0=no damage to plant). The method, then:
as §1, §2

Experiment [6] relates to Echinochloa crus-galli (ECHCG). The description is as above. The conditions noted are these: Echinochloa crus-galli, 312 h, rate 250 g/ha, evaluated after 13 days, read-out: Post-emergence activity ECHCG (100=total damage to plant; 0=no damage to plant). The method, then: as §1, §2
The test system of experiment [7] is Avena fatua (AVEFA). Described as above. The conditions noted are these: Avena fatua, 312 h, rate 250 g/ha, evaluated after 13 days, read-out: Post-emergence activity AVEFA (100=total damage to plant; 0=no damage to plant). The method, then:
as §1, §2

Experiment [8] relates to Lolium perenne (LOLPE). The experiment is described as above. The conditions noted are these: Lolium perenne, 312 h, rate 250 g/ha, evaluated after 13 days, read-out: Post-emergence activity LOLPE (100=total damage to plant; 0=no damage to plant). The method, then:
as §1, §2

Molecules are shown by their SMILES.

14 molecules from patent US8865623B2, “Herbicidally active cyclic diones and derivatives thereof, processes for their preparation, compositions, and method of controlling weeds” (Syngenta Limited, priority 2009, dated 2014) can be followed below.

Consider `CCc1ccc(Oc2ccc(C(F)(F)F)c(C#N)c2)cc1C1=C(O)[C@@H]2CC[C@](C)(C1=O)C2(C)C` [Example A-323], for which the pest or weed control at 250 g/ha in experiment [1] (pre-emergence spray) was 70%; in experiment [2] (pre-emergence spray), 100%; with Avena fatua (AVEFA) [3] (pre-emergence spray) it was 80%; with Lolium perenne (LOLPE) [4] (pre-emergence spray), 100%; in experiment [5] (glasshouse), 60%; in experiment [6] (glasshouse), 90%. Besides, the pest or weed control at 250 g/ha with Avena fatua (AVEFA) [7] (glasshouse) was determined as 80%; with Lolium perenne (LOLPE) [8] (glasshouse), 70%.
`CCc1ccc(Oc2nc(F)c(F)c(Cl)c2F)cc1C1=C(O)C(C)(C)OC(C)(C)C1=O` [Example A-151]: the pest or weed control at 250 g/ha was determined as 30% in experiment [1] (pre-emergence spray); 70% in experiment [2] (pre-emergence spray); 20% in the experiment on Avena fatua (AVEFA) [3] (pre-emergence spray); 50% in the experiment on Lolium perenne (LOLPE) [4] (pre-emergence spray); 20% in experiment [5] (glasshouse); 70% in experiment [6] (glasshouse). Further, the pest or weed control at 250 g/ha amounted to 20% in the experiment on Avena fatua (AVEFA) [7] (glasshouse) and 30% with Lolium perenne (LOLPE) [8] (glasshouse).
`CCc1ccc(Oc2ncc(C(F)(F)F)cc2Cl)cc1C1=C(O)[C@H]2CC[C@H](C2)C1=O` [Example A-335]: the pest or weed control at 250 g/ha in experiment [1] (pre-emergence spray) was 100%; in experiment [2] (pre-emergence spray) it was 100%; in the experiment on Avena fatua (AVEFA) [3] (pre-emergence spray), 90%; with Lolium perenne (LOLPE) [4] (pre-emergence spray), 100%; in experiment [5] (glasshouse), 100%; in experiment [6] (glasshouse), 100%. For the same molecule, the pest or weed control at 250 g/ha came out at 90% in the experiment on Avena fatua (AVEFA) [7] (glasshouse) and 100% in the experiment with Lolium perenne (LOLPE) [8] (glasshouse).
Regarding `CCc1ccc(Oc2cnc3cc(F)ccc3n2)cc1C1=C(O)C(C)(C)OC(C)(C)C1=O` [Example A-172], the pest or weed control at 250 g/ha in experiment [1] (pre-emergence spray) came out at 90%; in experiment [2] (pre-emergence spray) it was 100%; in the experiment on Avena fatua (AVEFA) [3] (pre-emergence spray), 60%; in the experiment with Lolium perenne (LOLPE) [4] (pre-emergence spray), 100%; in experiment [5] (glasshouse), 100%; in experiment [6] (glasshouse), 100%. Besides, the pest or weed control at 250 g/ha in the experiment on Avena fatua (AVEFA) [7] (glasshouse) and with Lolium perenne (LOLPE) [8] (glasshouse) was 100% each time.
In the case of `CCc1ccc(Oc2nccnc2Cl)cc1C1=C(O)C(C)(C)OC(C)(C)C1=O` [Example A-103], the pest or weed control at 250 g/ha is 10% in experiment [1] (pre-emergence spray); 30% in experiment [2] (pre-emergence spray); 0% in the experiment with Avena fatua (AVEFA) [3] (pre-emergence spray); 40% in the experiment on Lolium perenne (LOLPE) [4] (pre-emergence spray); 10% in experiment [5] (glasshouse); 40% in experiment [6] (glasshouse). Further, the pest or weed control at 250 g/ha in the experiment on Avena fatua (AVEFA) [7] (glasshouse) turned out to be 0%; in the experiment on Lolium perenne (LOLPE) [8] (glasshouse), 20%.
In the case of `CCc1ccc(Oc2ccc(OC(F)(F)F)cc2)cc1C1=C(O)[C@H]2CC[C@H](C2)C1=O` [Example A-248], the pest or weed control at 250 g/ha in experiment [1] (pre-emergence spray) was found to be 90%; in experiment [2] (pre-emergence spray), 100%; in the experiment with Avena fatua (AVEFA) [3] (pre-emergence spray) it was 80%; in the experiment on Lolium perenne (LOLPE) [4] (pre-emergence spray), 100%; in experiment [5] (glasshouse), 100%; in experiment [6] (glasshouse), 100%. In addition, the pest or weed control at 250 g/ha with Avena fatua (AVEFA) [7] (glasshouse) and in the experiment on Lolium perenne (LOLPE) [8] (glasshouse) was 100% in each case.
With `CCc1ccc(Oc2ncc(C(F)(F)F)cc2F)cc1C1=C(O)C(C)(C)OC(C)(C)C1=O` [Example A-62], the pest or weed control at 250 g/ha (in experiment [1] (pre-emergence spray); in experiment [2] (pre-emergence spray); in the experiment with Avena fatua (AVEFA) [3] (pre-emergence spray); in the experiment on Lolium perenne (LOLPE) [4] (pre-emergence spray); in experiment [5] (glasshouse); in experiment [6] (glasshouse)) was 100% throughout. Moreover, the pest or weed control at 250 g/ha in the experiment on Avena fatua (AVEFA) [7] (glasshouse) and with Lolium perenne (LOLPE) [8] (glasshouse) was 100% each time.
With `CCc1ccc(Oc2ccc(Br)cc2F)cc1C1=C(O)CC2(CCOCC2)CC1=O` [Example A-25], the pest or weed control at 250 g/ha in experiment [1] (pre-emergence spray) was determined as 70%; in experiment [2] (pre-emergence spray), 90%; in the experiment with Avena fatua (AVEFA) [3] (pre-emergence spray), 80%; in the experiment with Lolium perenne (LOLPE) [4] (pre-emergence spray) it was 80%; in experiment [5] (glasshouse) it was 90%; in experiment [6] (glasshouse), 100%. Also, the pest or weed control at 250 g/ha in the experiment on Avena fatua (AVEFA) [7] (glasshouse) was found to be 100%; with Lolium perenne (LOLPE) [8] (glasshouse), 90%.
Turning to `CCc1ccc(Oc2ccc(F)cc2)cc1C1=C(O)CC(C)(C)CC1=O` [Example A-28], the pest or weed control at 250 g/ha was 20% in experiment [1] (pre-emergence spray); 70% in experiment [2] (pre-emergence spray); 0% in the experiment with Avena fatua (AVEFA) [3] (pre-emergence spray); 40% in the experiment on Lolium perenne (LOLPE) [4] (pre-emergence spray); 30% in experiment [5] (glasshouse); 80% in experiment [6] (glasshouse). For the same molecule, the pest or weed control at 250 g/ha with Avena fatua (AVEFA) [7] (glasshouse) was 20%; in the experiment on Lolium perenne (LOLPE) [8] (glasshouse), 40%.
As to `CCc1ccc(Oc2ccc(Cl)cc2F)cc1C1=C(O)CC(C)(C)CC1=O` [Example A-30], the pest or weed control at 250 g/ha came out at 70% in experiment [1] (pre-emergence spray); 80% in experiment [2] (pre-emergence spray); 50% in the experiment on Avena fatua (AVEFA) [3] (pre-emergence spray); 70% with Lolium perenne (LOLPE) [4] (pre-emergence spray); 70% in experiment [5] (glasshouse); 100% in experiment [6] (glasshouse). The pest or weed control at 250 g/ha with Avena fatua (AVEFA) [7] (glasshouse) and in the experiment on Lolium perenne (LOLPE) [8] (glasshouse) was 60% each time.
As to `CCc1ccc(Oc2ccc(C#N)c(Cl)c2)cc1C1=C(O)CC(C)(C)CC1=O` [Example A-280], the pest or weed control at 250 g/ha in experiment [1] (pre-emergence spray) was 70%; in experiment [2] (pre-emergence spray), 100%; in the experiment on Avena fatua (AVEFA) [3] (pre-emergence spray) it was 40%; with Lolium perenne (LOLPE) [4] (pre-emergence spray), 70%; in experiment [5] (glasshouse), 90%; in experiment [6] (glasshouse), 100%. The pest or weed control at 250 g/ha stood at 70% in the experiment with Avena fatua (AVEFA) [7] (glasshouse) and 60% with Lolium perenne (LOLPE) [8] (glasshouse).
As to `CC1(C)OC(C)(C)C(O)=C(c2cc(Oc3cnc4cc(F)ccc4n3)ccc2C2CC2)C1=O` [Example A-372], the pest or weed control at 250 g/ha in experiment [1] (pre-emergence) was determined as 70%; in experiment [2] (pre-emergence) it was 90%; with Avena fatua (AVEFA) [3] (pre-emergence), 90%; in the experiment with Lolium perenne (LOLPE) [4] (pre-emergence) it was 100%; in experiment [5], 100%; in experiment [6] it was 100%. Besides, the pest or weed control at 250 g/ha in the experiment on Avena fatua (AVEFA) [7] and in the experiment on Lolium perenne (LOLPE) [8] was 100% each time.
Consider `CCc1ccc(Oc2nc(F)c(Cl)cc2Cl)cc1C1=C(O)C(C)(C)OC(C)(C)C1=O` [Example A-140], for which the pest or weed control at 250 g/ha in experiment [1] (pre-emergence spray) came to 20%; in experiment [2] (pre-emergence spray), 50%; with Avena fatua (AVEFA) [3] (pre-emergence spray), 0%; in the experiment on Lolium perenne (LOLPE) [4] (pre-emergence spray), 50%; in experiment [5] (glasshouse), 70%; in experiment [6] (glasshouse) it was 100%. Further, the pest or weed control at 250 g/ha with Avena fatua (AVEFA) [7] (glasshouse) and with Lolium perenne (LOLPE) [8] (glasshouse) was 70% each time.
As to `CCc1ccc(Oc2ccccc2F)cc1C1=C(O)C(C)(C)OC(C)(C)C1=O` [Example A-13], the pest or weed control at 250 g/ha in experiment [1] (pre-emergence spray) is 0%; in experiment [2] (pre-emergence spray), 0%; with Avena fatua (AVEFA) [3] (pre-emergence spray), 0%; in the experiment on Lolium perenne (LOLPE) [4] (pre-emergence spray), 0%; in experiment [5] (glasshouse), 0%; in experiment [6] (glasshouse), 70%. Further, the pest or weed control at 250 g/ha in the experiment on Avena fatua (AVEFA) [7] (glasshouse) and with Lolium perenne (LOLPE) [8] (glasshouse) was 0% throughout.
